Reference: article PMC3611663 (American heart journal, 2011)
Where two headings read alike, the source gives them in different places. Bridge positions count the residues as written; N and C are the ends. Square brackets hold non-standard residues; d marks the D form. Peptide text beside a SMILES is read from it. hArg = N=C(N)NCCCC[C@H](N)C(=O)O; Mpa = O=C(O)CCS

How the values were obtained:
GP IIb/IIIa receptor = conditions: PRIDE study; cited from earlier work
[1] = format: in vivo, human

N=C(N)NCCCC[C@@H]1NC(=O)CCSSC[C@@H](C(N)=O)NC(=O)[C@@H]2CCCN2C(=O)[C@H](Cc2c[nH]c3ccccc23)NC(=O)[C@H](CC(=O)O)NC(=O)CNC1=O [Eptifibatide] ([Mpa][hArg]GDWPC-NH2; disulfide 1-7 (inferred); C-terminus assumed)
Plasma concentration necessary to achieve >80% occupancy of the GP IIb/IIIa receptor (GP IIb/IIIa receptor): approximately 1600 ng/mL | Slope of plasma concentration versus body weight (ANCOVA regression) ([1]; ABW dosing): 20.6 | Patients with plasma Eptifibatide >1600 ng/mL ([1]; ABW-based dosing (N=22)): 14 (64) no. (%) | Patients with plasma Eptifibatide ≤1600 ng/mL ([1]; ABW-based dosing (N=22)): 8 (36) no. (%) | Slope of plasma concentration versus body weight (ANCOVA regression) ([1]; IBW dosing): 6.9 | Patients with plasma Eptifibatide >1600 ng/mL ([1]; IBW-based dosing (N=20)): 2 (10) no. (%) | Patients with plasma Eptifibatide ≤1600 ng/mL ([1]; IBW-based dosing (N=20)): 18 (90) no. (%) | Slope of plasma concentration versus body weight (ANCOVA regression) ([1]; standard dosing): −6.4 | Patients with plasma Eptifibatide >1600 ng/mL ([1]; standard dosing (N=19)): 10 (53) no. (%) | Patients with plasma Eptifibatide ≤1600 ng/mL ([1]; standard dosing (N=19)): 9 (47) no. (%)
